Data from ChEMBL document CHEMBL1240489, “Discovery of N-{1-[3-(3-oxo-2,3-dihydrobenzo[1,4]oxazin-4-yl)propyl]piperidin-4-yl}-2-phenylacetamide (Lu AE51090): an allosteric muscarinic M1 receptor agonist with unprecedented selectivity and procognitive potential” (J Med Chem, 2010).
Activity calls are given as the source filed them. No cut-off for these calls is given here.

Legend:
Hepatocyte = assay: Intrinsic clearance in rat hepatocytes at 1 uM after up to 60 mins by LC/MS-MS analysis; assay type: ADME, cell-based, Liver; conditions: 1 h
Histamine H1 receptor = Histamine H1 receptor (Homo sapiens, UniProt P35367); assay: Binding affinity to human histamine H1 receptor by radioligand displacement assay
Chain of Histamine H1 receptor (P35367 whole entry): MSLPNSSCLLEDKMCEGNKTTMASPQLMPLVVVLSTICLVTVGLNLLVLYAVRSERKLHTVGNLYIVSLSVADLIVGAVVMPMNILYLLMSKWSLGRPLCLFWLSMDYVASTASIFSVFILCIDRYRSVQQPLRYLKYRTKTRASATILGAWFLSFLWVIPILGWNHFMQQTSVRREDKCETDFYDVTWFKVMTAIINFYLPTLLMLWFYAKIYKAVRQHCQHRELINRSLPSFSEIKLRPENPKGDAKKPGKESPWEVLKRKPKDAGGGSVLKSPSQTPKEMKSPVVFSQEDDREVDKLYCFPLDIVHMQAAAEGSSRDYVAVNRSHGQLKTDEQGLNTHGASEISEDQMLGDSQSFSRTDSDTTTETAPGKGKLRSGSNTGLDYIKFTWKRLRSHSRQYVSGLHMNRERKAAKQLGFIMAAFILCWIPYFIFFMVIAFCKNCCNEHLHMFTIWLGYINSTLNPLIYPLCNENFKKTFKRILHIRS

D(2) dopamine receptor = D(2) dopamine receptor (Homo sapiens, UniProt P14416); assay: Binding affinity to human dopamine D2S receptor by radioligand displacement assay
Chain of D(2) dopamine receptor (P14416 whole entry): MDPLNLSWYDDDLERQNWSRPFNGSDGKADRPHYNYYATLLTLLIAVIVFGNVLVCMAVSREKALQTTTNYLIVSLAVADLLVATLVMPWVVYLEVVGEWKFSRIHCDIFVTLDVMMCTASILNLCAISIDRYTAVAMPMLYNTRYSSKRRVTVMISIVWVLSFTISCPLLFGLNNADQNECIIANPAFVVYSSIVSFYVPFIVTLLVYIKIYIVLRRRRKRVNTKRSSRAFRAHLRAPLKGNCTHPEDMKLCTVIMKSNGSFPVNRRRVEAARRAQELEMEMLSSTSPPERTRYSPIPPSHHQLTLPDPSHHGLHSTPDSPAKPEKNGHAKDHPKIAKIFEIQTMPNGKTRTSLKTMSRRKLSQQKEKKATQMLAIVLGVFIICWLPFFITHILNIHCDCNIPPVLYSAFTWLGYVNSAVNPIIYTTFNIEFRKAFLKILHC

Glucocorticoid receptor = Glucocorticoid receptor (Homo sapiens, UniProt P04150); assay: Binding affinity to human glucocorticoid receptor by radioligand displacement assay
[1] = molecular target: Sodium-dependent dopamine transporter (Homo sapiens, UniProt Q01959); assay: Binding affinity to human dopamine transporter by radioligand displacement assay
Adenosine receptor A1 = Adenosine receptor A1 (Homo sapiens, UniProt P30542); assay: Binding affinity to human adenosine A1 receptor agonist site by radioligand displacement assay
Chain of Adenosine receptor A1 (P30542 whole entry): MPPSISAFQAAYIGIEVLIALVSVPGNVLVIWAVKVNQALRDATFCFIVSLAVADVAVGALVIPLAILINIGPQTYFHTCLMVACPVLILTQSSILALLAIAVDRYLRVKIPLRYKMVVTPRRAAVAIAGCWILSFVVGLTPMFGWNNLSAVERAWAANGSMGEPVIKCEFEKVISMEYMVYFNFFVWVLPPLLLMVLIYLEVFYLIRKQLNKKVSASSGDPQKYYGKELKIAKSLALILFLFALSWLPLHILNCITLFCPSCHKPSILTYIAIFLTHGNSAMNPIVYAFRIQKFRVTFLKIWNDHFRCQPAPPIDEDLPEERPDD

Mus musculus [2] = assay: Reversal of 60 seconds delay-induced memory decay in C57Bl/6J mouse assessed as positive alteration at 10 to 20 mg/kg, sc for 1 week by Y-maze test; assay type: functional, organism-based
[3] = molecular target: T1, Muscarinic acetylcholine receptor M3 (Homo sapiens, UniProt P20309); assay: Displacement of [3H]-4-DAMP from human muscarinic M3 receptor expressed in BHK-21 cells; assay type: cell-based
[4] = molecular target: Gastrin/cholecystokinin type B receptor (Homo sapiens, UniProt P32239); assay: Binding affinity to human CCK2 receptor by radioligand displacement assay
[5] = molecular target: T2, Muscarinic acetylcholine receptor M4 (Homo sapiens, UniProt P08173); assay: Displacement of [3H]-4-DAMP from human muscarinic M4 receptor expressed in BHK-21 cells; assay type: cell-based
T2 sequence (P08173 whole entry): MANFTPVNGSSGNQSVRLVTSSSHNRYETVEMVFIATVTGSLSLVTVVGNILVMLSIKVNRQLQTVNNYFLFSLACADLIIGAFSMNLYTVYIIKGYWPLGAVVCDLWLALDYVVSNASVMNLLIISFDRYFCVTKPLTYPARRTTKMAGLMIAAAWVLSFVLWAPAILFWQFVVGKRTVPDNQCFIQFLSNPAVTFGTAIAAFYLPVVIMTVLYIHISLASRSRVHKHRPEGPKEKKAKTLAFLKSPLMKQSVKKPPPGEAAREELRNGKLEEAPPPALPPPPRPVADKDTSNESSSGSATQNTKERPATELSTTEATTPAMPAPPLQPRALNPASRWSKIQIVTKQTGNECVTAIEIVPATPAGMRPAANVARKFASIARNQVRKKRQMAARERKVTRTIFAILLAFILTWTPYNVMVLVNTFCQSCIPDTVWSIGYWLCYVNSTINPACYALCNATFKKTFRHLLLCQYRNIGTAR

Histamine H3 receptor = Histamine H3 receptor (Homo sapiens, UniProt Q9Y5N1); assay: Binding affinity to human histamine H3 receptor by radioligand displacement assay
Mu-type opioid receptor = Mu-type opioid receptor (Homo sapiens, UniProt P35372); assay: Binding affinity to human mu opioid receptor agonist site by radioligand displacement assay
Chain of Mu-type opioid receptor (P35372 whole entry): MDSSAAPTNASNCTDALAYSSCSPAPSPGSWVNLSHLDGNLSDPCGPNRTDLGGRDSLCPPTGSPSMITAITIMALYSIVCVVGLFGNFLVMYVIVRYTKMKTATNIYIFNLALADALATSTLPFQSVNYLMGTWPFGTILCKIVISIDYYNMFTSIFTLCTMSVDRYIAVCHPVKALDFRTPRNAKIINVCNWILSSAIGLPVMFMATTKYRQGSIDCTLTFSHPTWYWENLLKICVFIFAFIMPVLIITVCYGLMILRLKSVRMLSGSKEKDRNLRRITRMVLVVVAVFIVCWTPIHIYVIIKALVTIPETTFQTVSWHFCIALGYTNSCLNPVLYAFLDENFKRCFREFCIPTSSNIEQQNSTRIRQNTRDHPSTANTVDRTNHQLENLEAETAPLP

[6] = Binding affinity to NMDA receptor PCP binding site by radioligand displacement assay
[7] = molecular target: Melatonin receptor type 1A (Homo sapiens, UniProt P48039); assay: Binding affinity to human MT1 receptor by radioligand displacement assay
Chain of Melatonin receptor type 1A (P48039 whole entry): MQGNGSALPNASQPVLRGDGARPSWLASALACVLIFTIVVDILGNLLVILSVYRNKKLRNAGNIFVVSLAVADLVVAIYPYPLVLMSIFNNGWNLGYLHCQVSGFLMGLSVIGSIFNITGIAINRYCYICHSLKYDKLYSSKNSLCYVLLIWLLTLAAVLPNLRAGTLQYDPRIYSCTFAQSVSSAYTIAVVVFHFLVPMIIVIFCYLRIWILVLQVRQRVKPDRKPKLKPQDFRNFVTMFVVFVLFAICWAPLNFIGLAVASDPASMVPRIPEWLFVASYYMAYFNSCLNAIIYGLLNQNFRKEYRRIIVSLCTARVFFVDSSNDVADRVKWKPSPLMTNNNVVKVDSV

[8] = molecular target: Ribosyldihydronicotinamide dehydrogenase [quinone] (Homo sapiens, UniProt P16083); assay: Binding affinity to ML2 (MT3) receptor by radioligand displacement assay
[9] = molecular target: T1, Muscarinic acetylcholine receptor M3; assay: Agonist activity at human muscarinic M3 receptor expressed in BHK-21 cells assessed as increase of acetylcholine-induced calcium flux at 10 uM by FLIPR assay relative to acetylcholine; assay type: functional, cell-based
[10] = Ratio of brain to plasma AUC in C57/6J mouse at 20 mg/kg, sc; assay type: ADME, organism-based; parameters: dose 20 mg/kg, route subcutaneous
[11] = molecular target: T3, Muscarinic acetylcholine receptor M1 (Homo sapiens, UniProt P11229)
T3 sequence (P11229 whole entry): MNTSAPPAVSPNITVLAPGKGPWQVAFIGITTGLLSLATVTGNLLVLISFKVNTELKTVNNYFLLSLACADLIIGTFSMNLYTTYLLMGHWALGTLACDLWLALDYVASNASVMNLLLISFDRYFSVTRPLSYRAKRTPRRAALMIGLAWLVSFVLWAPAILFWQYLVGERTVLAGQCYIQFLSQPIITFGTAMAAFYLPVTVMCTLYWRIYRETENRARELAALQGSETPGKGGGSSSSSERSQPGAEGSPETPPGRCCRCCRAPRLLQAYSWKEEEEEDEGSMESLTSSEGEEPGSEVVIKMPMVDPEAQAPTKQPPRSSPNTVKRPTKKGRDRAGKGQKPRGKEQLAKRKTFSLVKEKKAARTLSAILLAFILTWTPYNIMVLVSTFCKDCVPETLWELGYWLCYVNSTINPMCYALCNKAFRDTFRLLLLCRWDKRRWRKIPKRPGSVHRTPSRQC

[12] = Binding affinity to PDE4 by enzyme assay
[13] = Binding affinity to adrenergic alpha1 receptor by radioligand displacement assay
[14] = Oral bioavailability in rat plasma at 2 mg/kg; assay type: ADME, organism-based
[15] = molecular target: 5-hydroxytryptamine receptor 3A (Homo sapiens, UniProt P46098); assay: Binding affinity to human 5-HT3 receptor by radioligand displacement assay
Chain of 5-hydroxytryptamine receptor 3A (P46098 whole entry): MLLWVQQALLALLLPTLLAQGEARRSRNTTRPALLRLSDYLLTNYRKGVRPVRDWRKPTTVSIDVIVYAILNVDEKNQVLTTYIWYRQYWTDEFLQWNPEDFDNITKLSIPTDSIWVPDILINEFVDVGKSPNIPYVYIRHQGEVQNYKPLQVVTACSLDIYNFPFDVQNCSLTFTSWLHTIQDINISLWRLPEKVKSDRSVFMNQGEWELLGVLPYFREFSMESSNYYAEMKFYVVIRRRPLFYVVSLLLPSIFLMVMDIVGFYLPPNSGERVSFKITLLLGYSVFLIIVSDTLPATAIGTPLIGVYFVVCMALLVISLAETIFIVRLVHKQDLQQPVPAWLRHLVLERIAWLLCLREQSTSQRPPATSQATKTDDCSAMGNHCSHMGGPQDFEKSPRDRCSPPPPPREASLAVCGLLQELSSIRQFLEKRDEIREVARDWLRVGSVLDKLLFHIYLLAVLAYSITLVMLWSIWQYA

Mus musculus [16] = assay: Reversal of 0 seconds delay-induced memory decay in C57Bl/6J mouse assessed as positive alteration at 0.31 to 20 mg/kg, sc for 1 week by Y-maze test; assay type: functional; conditions: dose mg/kg 0.31-20; route subcutaneous
[17] = molecular target: Alpha-2A adrenergic receptor (Homo sapiens, UniProt P08913); assay: Binding affinity to human adrenergic alpha2A receptor by radioligand displacement assay
Chain of Alpha-2A adrenergic receptor (P08913 whole entry): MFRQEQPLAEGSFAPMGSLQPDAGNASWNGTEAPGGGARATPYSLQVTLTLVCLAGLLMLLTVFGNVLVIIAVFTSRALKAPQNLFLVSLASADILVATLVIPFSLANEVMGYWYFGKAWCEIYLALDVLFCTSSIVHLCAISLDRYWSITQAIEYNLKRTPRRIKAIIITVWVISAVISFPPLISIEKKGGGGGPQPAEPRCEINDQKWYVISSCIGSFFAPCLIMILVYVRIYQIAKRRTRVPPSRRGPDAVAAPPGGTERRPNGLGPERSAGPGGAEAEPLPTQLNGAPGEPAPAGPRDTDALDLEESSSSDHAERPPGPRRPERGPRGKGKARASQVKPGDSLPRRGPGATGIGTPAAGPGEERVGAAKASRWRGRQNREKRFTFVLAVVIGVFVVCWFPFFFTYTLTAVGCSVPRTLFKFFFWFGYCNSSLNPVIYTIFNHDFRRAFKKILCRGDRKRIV

Mus musculus [18] = assay: Reversal of 60 seconds delay-induced memory decay in C57Bl/6J mouse assessed as positive alteration at 0.31 to […], sc for 1 week by Y-maze test; assay type: functional, organism-based
[19] = Protein binding in rat plasma at 0.1 uM after 60 mins by LC/MS-MS analysis; assay type: ADME, cell-free; conditions: read-out: PPB (converted)
[20] = molecular target: Neuronal acetylcholine receptor; alpha4/beta2 (Homo sapiens, UniProt P17787+P43681); assay: Binding affinity to nAChR alpha4beta2 receptor by radioligand displacement assay; assay type: protein-complex assay
Chain of Neuronal acetylcholine receptor; alpha4/beta2 (P17787 whole entry): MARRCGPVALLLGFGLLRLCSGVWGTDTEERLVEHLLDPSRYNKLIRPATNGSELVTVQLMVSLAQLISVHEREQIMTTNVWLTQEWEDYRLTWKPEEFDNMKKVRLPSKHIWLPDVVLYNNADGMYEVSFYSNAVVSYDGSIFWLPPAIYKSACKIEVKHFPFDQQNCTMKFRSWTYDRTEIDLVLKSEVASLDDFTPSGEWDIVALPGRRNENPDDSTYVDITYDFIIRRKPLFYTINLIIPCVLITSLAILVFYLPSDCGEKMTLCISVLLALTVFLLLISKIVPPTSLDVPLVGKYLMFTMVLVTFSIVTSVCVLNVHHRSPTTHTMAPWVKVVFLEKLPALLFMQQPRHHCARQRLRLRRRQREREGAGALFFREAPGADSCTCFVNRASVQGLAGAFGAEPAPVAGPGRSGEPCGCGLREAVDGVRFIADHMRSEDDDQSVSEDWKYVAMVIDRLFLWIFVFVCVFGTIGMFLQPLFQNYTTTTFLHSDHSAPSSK
Chain of Neuronal acetylcholine receptor; alpha4/beta2 (P43681 whole entry): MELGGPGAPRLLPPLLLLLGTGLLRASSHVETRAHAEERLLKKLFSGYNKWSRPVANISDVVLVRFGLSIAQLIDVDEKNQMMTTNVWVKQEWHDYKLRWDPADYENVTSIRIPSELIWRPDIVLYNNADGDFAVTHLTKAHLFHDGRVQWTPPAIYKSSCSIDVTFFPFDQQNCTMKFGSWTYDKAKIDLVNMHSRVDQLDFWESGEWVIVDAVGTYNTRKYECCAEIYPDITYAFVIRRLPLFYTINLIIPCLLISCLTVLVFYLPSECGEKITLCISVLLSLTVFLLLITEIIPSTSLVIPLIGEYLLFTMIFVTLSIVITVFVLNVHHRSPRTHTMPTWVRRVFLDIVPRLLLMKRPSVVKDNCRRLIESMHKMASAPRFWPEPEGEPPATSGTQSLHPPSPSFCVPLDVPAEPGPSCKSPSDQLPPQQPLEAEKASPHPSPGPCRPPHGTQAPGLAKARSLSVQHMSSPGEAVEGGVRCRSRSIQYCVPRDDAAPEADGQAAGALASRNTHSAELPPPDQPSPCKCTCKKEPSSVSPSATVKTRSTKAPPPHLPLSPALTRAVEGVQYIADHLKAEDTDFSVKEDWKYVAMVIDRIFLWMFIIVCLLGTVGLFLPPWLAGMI

[21] = molecular target: Alpha-2B adrenergic receptor (Homo sapiens, UniProt P18089); assay: Binding affinity to adrenergic alpha2B receptor by radioligand displacement assay
Chain of Alpha-2B adrenergic receptor (P18089 whole entry): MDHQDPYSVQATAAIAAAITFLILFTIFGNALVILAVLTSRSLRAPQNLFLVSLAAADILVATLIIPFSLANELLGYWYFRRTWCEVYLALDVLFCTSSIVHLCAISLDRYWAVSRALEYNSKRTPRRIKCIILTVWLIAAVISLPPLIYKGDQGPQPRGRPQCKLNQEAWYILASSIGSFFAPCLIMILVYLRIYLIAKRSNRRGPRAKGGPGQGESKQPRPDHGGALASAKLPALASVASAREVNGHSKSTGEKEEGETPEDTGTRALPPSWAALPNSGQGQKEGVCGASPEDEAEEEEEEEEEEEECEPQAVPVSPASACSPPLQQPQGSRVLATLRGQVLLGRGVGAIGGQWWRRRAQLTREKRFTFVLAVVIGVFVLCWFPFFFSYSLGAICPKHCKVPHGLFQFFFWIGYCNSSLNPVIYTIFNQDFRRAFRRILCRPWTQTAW

[22] = Drug level in C57/6J mouse brain at 20 mg/kg, sc after 30 mins; assay type: ADME, organism-based; parameters: dose 20 mg/kg, route subcutaneous; conditions: read-out: Drug uptake
[23] = molecular target: High affinity choline transporter 1 (Homo sapiens, UniProt Q9GZV3); assay: Binding affinity to human choline transporter (CHT1) by radioligand displacement assay
[24] = Binding affinity to sigma receptor by radioligand displacement assay
Substance-P receptor = Substance-P receptor (Homo sapiens, UniProt P25103); assay: Binding affinity to human NK1 receptor by radioligand displacement assay
Chain of Substance-P receptor (P25103 whole entry): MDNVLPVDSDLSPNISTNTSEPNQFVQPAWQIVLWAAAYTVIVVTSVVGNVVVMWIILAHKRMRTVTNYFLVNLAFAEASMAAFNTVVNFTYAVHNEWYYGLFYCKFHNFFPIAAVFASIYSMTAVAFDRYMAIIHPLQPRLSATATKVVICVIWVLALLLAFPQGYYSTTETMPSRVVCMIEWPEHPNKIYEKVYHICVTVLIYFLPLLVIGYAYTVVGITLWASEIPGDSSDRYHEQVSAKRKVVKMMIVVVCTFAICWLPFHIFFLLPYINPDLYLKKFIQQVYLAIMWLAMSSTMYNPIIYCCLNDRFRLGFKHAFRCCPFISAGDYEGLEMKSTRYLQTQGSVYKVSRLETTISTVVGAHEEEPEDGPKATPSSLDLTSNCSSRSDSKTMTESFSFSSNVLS

Brain = assay: Protein binding in C57/6J mouse brain homogenates at 20 mg/kg, sc by equilibrium dialysis; assay type: ADME, organism-based; parameters: dose 20 mg/kg, route subcutaneous; conditions: in vivo

For `O=C(Cc1ccccc1)NC1CCN(CCCN2C(=O)COc3ccccc32)CC1`, the CL (Hepatocyte) was 100 mL/min, the Ki (Histamine H1 receptor) was 780 nM and the Ki (D(2) dopamine receptor) was ≥ 1000 nM. For the same compound, the Ki (Glucocorticoid receptor) was ≥ 1000 nM, the Ki [1] was ≥ 1000 nM and the Ki (Adenosine receptor A1) was ≥ 1000 nM. For the same compound, the Activity (Mus musculus [2]) was “Active”, the Ki [3] was 7 µM and the Ki [4] was ≥ 1000 nM. The Ki [5] was 6.9 µM, the Ki (Histamine H3 receptor) was ≥ 1000 nM and the Ki (Mu-type opioid receptor) was ≥ 1000 nM. For the same compound, the Ki [6] was ≥ 1000 nM, the Ki [7] was ≥ 1000 nM and the Ki [8] was ≥ 1000 nM. The Emax [9] was 1%, the Kp [10] was 0.35 and the EC50 [11] was 61 nM. The Ki [12] was ≥ 1000 nM, the Ki [13] was ≥ 1000 nM and the bioavailability [14] was 4%. The Ki [15] was ≥ 1000 nM, the Activity (Mus musculus [16]) was 80% and the Ki [17] was ≥ 1000 nM. For the same compound, the Activity (Mus musculus [18]) was “inactive”, the fraction unbound at 1 h, 0.1 µM [19] was 0.48 and the Ki [20] was ≥ 1000 nM. The Ki [21] was ≥ 1000 nM, the concentration at 0.5 h [22] was 440 ng/g and the Ki [23] was ≥ 1000 nM. The Ki [24] was ≥ 1000 nM, the Ki (Substance-P receptor) was ≥ 1000 nM and the Activity (Brain) was 70%.
